According to patent publication US10532052B2, “Combination of a 6-oxo-1,6-dihydro-pyridazine derivative having anti-cancer activity with an EGFR inhibitor” (Merck Patent GmbH, priority 2014, dated 2020):

Columns and labels:
[1] = test system: human DFCI081 NSCLC xenograft; assay: human DFCI081 patient derived NSCLC xenograft (PDX) model; type: in vivo; conditions: for tumor response class / median tumor volume (TV) change: female NCr nude mice; for tumor response class: 100 mg/kg each agent orally daily up to 18 days; for median tumor volume (TV) change: s.c. DFCI081 tumors, 100 mg/kg orally daily up to 18 days
Method: Method: Female NCr nude mice (7 weeks old) where subcutaneously injected with human DFCI081 tumor cells and were divided into treatment groups (10 animals per group) after the tumors were established. […] Median tumor volume (TV) change in % were calculated and statistical analysis done with two way-RM ANOVA.

[2] = test system: human NSCLC HCC827-GR-T790M xenograft; type: in vivo; conditions: female NCr nude mice, 100 mg/kg each agent orally daily, day 14
Experimental: Background: The human NSCLC HCC827-GR-T790M is a EGFR del 19 mutant and c-Met amplified lung xenograft model which exogenous expression of the EGFR T790M resistant mutation.
Method: Female NCr nude mice (7 weeks old) where subcutaneously injected with human HCC827-GR-T790M tumor cells and were divided into treatment groups (10 animals per group) after the tumors were established. […] Median tumor volume (TV) change in % were calculated at day 14, where the vehicle group was terminated and statistical analysis done with two way-RM ANOVA.

[3] = test system: human DFCI081 NSCLC xenograft; conditions: background; due to the activated c-Met pathway; cited from earlier work

| Structure (SMILES) | day at which complete tumor regression/response was observed in all mice ([1]; 100 mg/kg each agent orally daily) | tumor response class [1] | median tumor volume (TV) change [1] | tumor response class [2] | median tumor volume change ([2]; s.c. HCC827-GR-T790M tumors) | resistance of the model to EGFR inhibitor [3] |
| --- | --- | --- | --- | --- | --- | --- |
| CN1CCC(COc2cnc(-c3cccc(Cn4nc(-c5cccc(C#N)c5)ccc4=O)c3)nc2)CC1.Cl.O [3-(1-{3-[5-(1-Methyl-piperidin-4-ylmethoxy)-pyrimidin-2-yl]-benzyl}-6-oxo-1,6-dihydro-pyridazin-3-yl)-benzonitrile hydrochloride hydrate] | 15 days | tumor regression | −100% |  |  |  |
| C=CC(=O)Nc1cccc(Nc2nc(Nc3ccc(N4CCN(C(C)=O)CC4)cc3OC)ncc2C(F)(F)F)c1 [N-[3-[[2-[4-(4-acetylpiperazin-1-yl)-2-methoxy-anilino]-5-(trifluoromethyl)-pyrimidin-4-yl]amino]phenyl]prop-2-enamide] |  | tumor progressed | 700% | tumors progressed | 81% |  |
| C#Cc1cccc(Nc2ncnc3cc(OCCOC)c(OCCOC)cc23)c1 [erlotinib] |  |  |  |  |  | resistant |
